Source: paper PMC7571299 (ACS Pharmacology & Translational Science, 2020)
“Also recorded” adds a separate entry of the source. Where two headings read alike, the source gives them in different places.

Columns and labels:
SARS-CoV-2 [1] = settings: cited from earlier work; for Activity in NCATS CPE experiments: NCATS HTS
[2] = system: SARS-CoV-2 Isolate USA-WA1/2020; assay: Vero E6 cell assay; format: cell-based
SARS-CoV-2 [3] = format: cell-based
SARS-CoV-2 [4] = format: cell-based; remark: listed apart in the source
[5] = cited from earlier work
Vero E6 cells = settings: Vero E6, absence of virus, UTHSC

In the case of `O=C(CCCCCCC(=O)Nc1ccccc1)NO` [vorinostat], the “Activity in NCATS CPE experiments” value (SARS-CoV-2 [1]) is listed as “low activity”.

For `COc1cc(NC(C)CCCN)c2ncccc2c1` (centres unmarked) [primaquine], the “Antiviral activity in dose-response experiment in comparison with chloroquine” value [2] was “no appreciable activity”, the “Antiviral activity at the tested concentrations” value (SARS-CoV-2 [3]; UTHSC dose response) was “did not exhibit appreciable activity” and the “Reduction of virus titer” value (SARS-CoV-2 [4]) was “Neither primaquine nor ambroxol were found to reduce the virus titer”.

In the case of `CC(COc1ccccc1)NC(C)C(O)c1ccc(O)cc1` (centres unmarked) [isoxsuprine], the “Activity in NCATS CPE experiments” value (SARS-CoV-2 [1]) is listed as “low activity”.

In the case of `CCNCc1cc(Nc2ccnc3cc(Cl)ccc23)ccc1O` [N-monodesethyl amodiaquine], the “Antiviral activity compared to chloroquine” value [2] is given as “almost inactive”, the half-life [5] is given as roughly 20.8 days and the half-life ([5]; human, in vivo) is given as “over 3 weeks”. It also gave an EC50 (SARS-CoV-2 [3]) of 4 µM and a CC50 (Vero E6 cells) of 5.9 µM.

In the case of `Cc1[nH]c2ccccc2c1CCNCc1ccc(/C=C/C(=O)NO)cc1` [panobinostat], the “Activity in NCATS CPE experiments” value (SARS-CoV-2 [1]) is listed as “low activity”.

For `OC(CNCC(O)C1CCc2cc(F)ccc2O1)C1CCc2cc(F)ccc2O1` (centres unmarked) [nebivolol], the “Reduction of virus titer” value (SARS-CoV-2 [4]) is given as “more than 1 log units” and the “Activity in NCATS CPE experiments” value (SARS-CoV-2 [1]) is given as “poor activity”.

In the case of `CCC(CC)COC(=O)[C@H](C)N[P@](=O)(OC[C@H]1O[C@@](C#N)(c2ccc3c(N)ncnn23)[C@H](O)[C@@H]1O)Oc1ccccc1` [remdesivir], the “Reduction of virus titer” value (SARS-CoV-2 [4]) is reported as 3–4 log units.

For `OCCN1CCN(CC/C=C2/c3ccccc3Sc3ccc(Cl)cc32)CC1` [zuclopenthixol], the bioavailability ([5]; listed as ZPX) is listed as “about 50%”, the Peak of activity (SARS-CoV-2 [3]; 8.33 μM, UTHSC) is listed as 80% and the “Reduction of virus titer” value (SARS-CoV-2 [4]) is listed as “more than 1 log unit”.

In the case of `CCN(CC)CCCC(C)Nc1ccnc2cc(Cl)ccc12` (centres unmarked) [chloroquine], the “Reduction of virus titer” value (SARS-CoV-2 [4]) is reported as “did not reduce the virus titer”.

In the case of `CCN(CC)Cc1cc(Nc2ccnc3cc(Cl)ccc23)ccc1O` [amodiaquine], the half-life [5] is given as 0.12 days and the “Activity in NCATS CPE experiments” value (SARS-CoV-2 [1]) is given as “high activity”.

For `O=C(OCC(O)CO)c1ccccc1Nc1ccnc2cc(Cl)ccc12` (centres unmarked) [glafenine], the “Activity in NCATS CPE experiments” value (SARS-CoV-2 [1]) is given as “low activity”.

In the case of `CN(Cc1cc(Br)cc(Br)c1N)C1CCCCC1` [bromhexine], the “Activity in NCATS CPE experiments” value (SARS-CoV-2 [1]) is listed as “found active” and the EC50 (SARS-CoV-2 [1]; read-out: EC50 in CPE assay, NCATS) is listed as 13.9 µM.

In the case of `Nc1c(Br)cc(Br)cc1CN[C@H]1CC[C@H](O)CC1` [ambroxol], the “Reduction of virus titer” value (SARS-CoV-2 [4]) is listed as “inactive; also recorded: Neither primaquine nor ambroxol were found to reduce the virus titer” and the “Activity in NCATS CPE experiments” value (SARS-CoV-2 [1]) is listed as “low activity”.

In the case of `CCCCc1nc2cc(/C=C/C(=O)NO)ccc2n1CCN(CC)CC` [pracinostat], the “Activity in NCATS CPE experiments” value (SARS-CoV-2 [1]) is listed as “low activity”.
